Reference: patent US10851105B2, “Bicyclic heterocycles as FGFR4 inhibitors” (Incyte Corporation, priority 2014, dated 2020)
Read-outs that look alike come from different tables or passages of the source.

Assays:
[1] = target: FGFR2 (Homo sapiens (Human), UniProt P21802); experiment: FGFR Enzymatic Assay (FRET peptide phosphorylation), FGFR2; details: for FGFR2/FGFR4: IC50 ratio
Description: (§1) The inhibitor potency of the exemplified compounds was measured in an enzyme assay that measures peptide phosphorylation using FRET measurements to detect product formation. Inhibitors were serially diluted in DMSO and a volume of 0.5 μL was transferred to the wells of a 384-well plate. For FGFR3, a 10 μL volume of FGFR3 enzyme (Millipore) diluted in assay buffer (50 mM HEPES, 10 mM MgCl2, 1 mM EGTA, 0.01% Tween-20, 5 mM DTT, pH 7.5) was added to the plate and pre-incubated for a time between 5-10 minutes and up to 4 hours. Appropriate controls (enzyme blank and enzyme with no inhibitor) were included on the plate. […] The plate was incubated at 25° C. for 1 hr. […] The plate was allowed to equilibrate for ˜1 hr before scanning the wells on a PheraStar plate reader (BMG Labtech).
(§2) The enzymes were purchased from Millipore or Invitrogen.
(§3) GraphPad prism3 was used to analyze the data. The IC50 values were derived by fitting the data to the equation for a sigmoidal dose-response with a variable slope. Y=Bottom+(Top-Bottom)/(1+10^((Log IC50−X)*HillSlope)) where X is the logarithm of concentration and Y is the response.

[2] = target: FGFR1 (Homo sapiens (Human), UniProt P11362); experiment: FGFR Enzymatic Assay (FRET peptide phosphorylation), FGFR1; details: for FGFR1/FGFR4: IC50 ratio
FGFR1, sequence (P11362 22-822): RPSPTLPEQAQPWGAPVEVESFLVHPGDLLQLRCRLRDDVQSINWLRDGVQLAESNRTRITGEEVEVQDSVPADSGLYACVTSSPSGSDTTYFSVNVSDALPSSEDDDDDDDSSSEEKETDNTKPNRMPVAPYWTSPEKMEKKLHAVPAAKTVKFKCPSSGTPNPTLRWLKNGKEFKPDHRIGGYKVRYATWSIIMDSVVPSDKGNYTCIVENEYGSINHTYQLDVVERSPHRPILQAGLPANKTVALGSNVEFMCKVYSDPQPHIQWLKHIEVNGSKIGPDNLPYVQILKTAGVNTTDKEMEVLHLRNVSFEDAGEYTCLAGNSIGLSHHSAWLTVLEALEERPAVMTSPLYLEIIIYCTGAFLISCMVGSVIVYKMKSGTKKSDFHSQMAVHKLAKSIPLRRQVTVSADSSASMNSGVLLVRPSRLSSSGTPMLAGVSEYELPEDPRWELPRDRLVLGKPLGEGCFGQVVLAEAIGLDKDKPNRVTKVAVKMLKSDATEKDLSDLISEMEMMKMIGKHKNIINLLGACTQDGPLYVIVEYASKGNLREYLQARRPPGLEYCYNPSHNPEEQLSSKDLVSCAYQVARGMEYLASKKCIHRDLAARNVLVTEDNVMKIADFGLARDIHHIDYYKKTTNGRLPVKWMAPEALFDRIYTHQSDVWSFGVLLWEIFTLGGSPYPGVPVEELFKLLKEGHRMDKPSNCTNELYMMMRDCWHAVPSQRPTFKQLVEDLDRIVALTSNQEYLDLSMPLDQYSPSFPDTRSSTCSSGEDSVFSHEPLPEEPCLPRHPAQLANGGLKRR
Description: as §1, §2, §3

[3] = target: FGFR3 (Homo sapiens (Human), UniProt P22607); experiment: FGFR Enzymatic Assay (FRET peptide phosphorylation), FGFR3; details: for FGFR3/FGFR4: IC50 ratio
FGFR3, sequence (P22607 23-806): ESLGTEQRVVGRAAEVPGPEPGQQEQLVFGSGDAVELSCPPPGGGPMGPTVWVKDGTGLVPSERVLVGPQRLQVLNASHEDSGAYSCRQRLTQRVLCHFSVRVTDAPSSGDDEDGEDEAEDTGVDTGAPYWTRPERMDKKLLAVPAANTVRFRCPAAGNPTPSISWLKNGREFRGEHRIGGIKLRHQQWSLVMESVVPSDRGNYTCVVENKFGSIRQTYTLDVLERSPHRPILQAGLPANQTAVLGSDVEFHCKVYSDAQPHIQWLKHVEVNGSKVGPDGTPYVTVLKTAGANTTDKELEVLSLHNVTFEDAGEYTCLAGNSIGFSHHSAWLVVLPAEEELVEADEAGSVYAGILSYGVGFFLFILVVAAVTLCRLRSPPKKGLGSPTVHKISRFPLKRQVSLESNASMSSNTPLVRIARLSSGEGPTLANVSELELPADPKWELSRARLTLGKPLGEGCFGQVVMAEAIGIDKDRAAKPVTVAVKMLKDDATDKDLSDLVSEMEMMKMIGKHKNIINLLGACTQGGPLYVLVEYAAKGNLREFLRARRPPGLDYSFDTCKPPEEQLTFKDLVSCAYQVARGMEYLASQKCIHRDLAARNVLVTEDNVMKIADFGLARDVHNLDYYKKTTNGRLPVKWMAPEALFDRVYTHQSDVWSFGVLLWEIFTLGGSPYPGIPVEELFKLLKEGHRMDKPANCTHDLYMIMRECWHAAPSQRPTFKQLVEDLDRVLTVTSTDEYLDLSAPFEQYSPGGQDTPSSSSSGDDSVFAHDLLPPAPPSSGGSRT
Description: Inhibitors were serially diluted in DMSO and a volume of 0.5 μL was transferred to the wells of a 384-well plate. For FGFR3, a 10 μL volume of FGFR3 enzyme (Millipore) diluted in assay buffer (50 mM HEPES, 10 mM MgCl2, 1 mM EGTA, 0.01% Tween-20, 5 mM DTT, pH 7.5) was added to the plate and pre-incubated for a time between 5-10 minutes and up to 4 hours. Appropriate controls (enzyme blank and enzyme with no inhibitor) were included on the plate. […] The plate was incubated at 25° C. for 1 hr. […] The plate was allowed to equilibrate for ˜1 hr before scanning the wells on a PheraStar plate reader (BMG Labtech).
as §3

[4] = target: FGFR4 (Homo sapiens (Human), UniProt P22455); experiment: FGFR Enzymatic Assay (FRET peptide phosphorylation), FGFR4
FGFR4, sequence (P22455 22-802): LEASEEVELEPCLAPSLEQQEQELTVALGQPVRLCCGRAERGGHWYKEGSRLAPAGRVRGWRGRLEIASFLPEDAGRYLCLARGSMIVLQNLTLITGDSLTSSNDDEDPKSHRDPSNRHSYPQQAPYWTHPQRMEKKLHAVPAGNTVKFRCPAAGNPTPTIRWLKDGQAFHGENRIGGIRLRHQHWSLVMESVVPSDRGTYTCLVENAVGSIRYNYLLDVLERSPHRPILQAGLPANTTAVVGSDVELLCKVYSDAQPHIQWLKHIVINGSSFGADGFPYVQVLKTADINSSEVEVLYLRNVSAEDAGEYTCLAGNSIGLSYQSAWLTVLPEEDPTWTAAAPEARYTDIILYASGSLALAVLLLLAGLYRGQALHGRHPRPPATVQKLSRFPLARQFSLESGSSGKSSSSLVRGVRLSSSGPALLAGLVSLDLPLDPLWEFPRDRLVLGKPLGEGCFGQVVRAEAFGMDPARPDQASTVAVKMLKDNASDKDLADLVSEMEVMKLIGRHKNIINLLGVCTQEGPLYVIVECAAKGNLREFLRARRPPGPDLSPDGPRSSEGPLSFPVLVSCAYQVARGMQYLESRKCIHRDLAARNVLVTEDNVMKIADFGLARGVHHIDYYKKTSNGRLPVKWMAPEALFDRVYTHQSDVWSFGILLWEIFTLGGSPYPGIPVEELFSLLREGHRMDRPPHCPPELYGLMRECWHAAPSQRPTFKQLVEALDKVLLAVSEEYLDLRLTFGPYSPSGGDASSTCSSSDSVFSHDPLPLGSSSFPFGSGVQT
Description: as §1, §2, §3

[5] = pre-incubated for 5 to 10 minutes
[6] = read-out: FGFR2 IC50, pre-incubated for 5 to 10 minutes
[7] = FGFR1 IC50 (nM), pre-incubated for 5 to 10 minutes
[8] = FGFR1 IC50 (nM), pre-incubated for 4 hours
[9] = read-out: FGFR3 IC50, pre-incubated for 5 to 10 minutes
[10] = read-out: FGFR3 IC50, pre-incubated for 4 hours
[11] = read-out: FGFR4 IC50, pre-incubated for 5 to 10 minutes
[12] = read-out: FGFR4 IC50, pre-incubated for 4 hours
[13] = read-out: FGFR1 IC50, pre-incubated for 5 to 10 minutes
[14] = read-out: FGFR2 IC50, pre-incubated for 4 hours
[15] = read-out: FGFR1 IC50, pre-incubated for 4 hours
[16] = FGFR4 IC50 (nM), pre-incubated for 5 to 10 minutes
[17] = FGFR4 IC50 (nM), pre-incubated for 4 hours

FGFR2, sequence (P21802 22-821): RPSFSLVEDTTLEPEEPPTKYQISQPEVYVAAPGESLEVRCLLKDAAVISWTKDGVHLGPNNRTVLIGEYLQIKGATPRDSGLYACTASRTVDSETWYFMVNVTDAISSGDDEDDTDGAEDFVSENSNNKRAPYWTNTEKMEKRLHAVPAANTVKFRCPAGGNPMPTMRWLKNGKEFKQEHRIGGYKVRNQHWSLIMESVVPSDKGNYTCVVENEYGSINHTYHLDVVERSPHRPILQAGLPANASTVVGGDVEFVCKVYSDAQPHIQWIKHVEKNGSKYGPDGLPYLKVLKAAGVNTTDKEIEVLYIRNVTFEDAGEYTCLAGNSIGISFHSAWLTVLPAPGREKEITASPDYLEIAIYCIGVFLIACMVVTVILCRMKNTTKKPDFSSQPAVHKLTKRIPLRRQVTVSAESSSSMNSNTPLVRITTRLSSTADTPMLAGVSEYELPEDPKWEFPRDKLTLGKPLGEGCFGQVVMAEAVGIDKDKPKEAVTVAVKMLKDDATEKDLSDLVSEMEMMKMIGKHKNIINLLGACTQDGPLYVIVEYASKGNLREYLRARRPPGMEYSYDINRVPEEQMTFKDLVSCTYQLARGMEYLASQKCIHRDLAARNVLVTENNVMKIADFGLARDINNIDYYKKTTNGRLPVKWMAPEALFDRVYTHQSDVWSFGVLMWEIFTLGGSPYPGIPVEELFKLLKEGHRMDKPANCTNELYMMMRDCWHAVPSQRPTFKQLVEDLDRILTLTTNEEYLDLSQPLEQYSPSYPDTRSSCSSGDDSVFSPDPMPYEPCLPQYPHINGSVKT

Row | IC50 [1] [nM] | FGFR2/FGFR4 [1, 5] | FGFR2/FGFR4 ([1]; pre-incubated for 4 hours) | IC50 [1, 6] [nM] | IC50 [2, 7] [nM] | IC50 [2, 8] [nM] | FGFR1/FGFR4 [2, 5] | FGFR1/FGFR4 ([2]; pre-incubated for 4 hours) | FGFR3/FGFR4 [3, 5] | FGFR3/FGFR4 ([3]; pre-incubated for 4 hours) | IC50 [3, 9] [nM] | IC50 [3, 10] [nM] | IC50 [4, 11] [nM] | IC50 [4, 12] [nM] | IC50 [2, 13] [nM] | IC50 [1, 14] [nM] | IC50 [2, 15] [nM] | IC50 [4, 16] [nM] | IC50 [4, 17] [nM] | IC50 [3] [nM] | SMILES
1 | 30 to 200 | >2 | >5 | 30 to 200 | 30 to 200 | 30 to 200 | >5 | >10 | >5 | >10 | > 200 | – | – | < 10 | – | – | – | 10 to 30 | – | 30 to 200 | C=CC(=O)N(C)c1cc2c(cn1)CN(c1c(F)c(OC)cc(OC)c1F)C(=O)C21CC1 [Example 2, N-(2′-(2,6-difluoro-3,5-dimethoxyphenyl)-3′-oxo-2′,3′-dihydro-1′H-spiro [cyclopropane-1,4′-[2,7]naphthyridine]-6′-yl)-N-methylacrylamide]
2 | > 200 | >10 | >100 | > 200 | > 200 | 30 to 200 | >10 | >100 | >10 | >100 | > 200 | – | – | – | – | – | – | < 10 | < 10 | > 200 | C=CC(=O)NC1COCC1Nc1cc2c(cn1)CN(c1c(F)c(OC)cc(OC)c1F)C(=O)C21CC1 (racemic) [Example 4, N-(4-(2′-(2,6-difluoro-3,5-dimethoxyphenyl)-3′-oxo-2′,3′-dihydro-1′H-spiro[cyclopropane-1,4′-[2,7]naphthyridine]-6′-ylamino)tetrahydrofuran-3-yl)acrylamide]
3 | – | >10 | >100 | > 200 | – | – | >10 | >100 | >10 | >100 | > 200 | > 200 | < 10 | < 10 | > 200 | > 200 | > 200 | – | – | – | C=CC(=O)Nc1cccc(C)c1Nc1cc2c(cn1)CN(c1c(F)c(OC)cc(OC)c1F)C(=O)C21CC1 [Example 5, N-(2-(2′-(2,6-difluoro-3,5-dimethoxyphenyl)-3′-oxo-2′,3′-dihydro-1′H-spiro [cyclopropane-1,4′-[2,7]naphthyridine]-6′-ylamino)-3-methylphenyl)acrylamide]
4 | > 200 | >5 | >25 | > 200 | > 200 | > 200 | >5 | >25 | >10 | >100 | > 200 | – | – | – | – | – | – | 30 to 200 | < 10 | > 200 | C=CC(=O)NC1CCCCC1Nc1cc2c(cn1)CN(c1c(F)c(OC)cc(OC)c1F)C(=O)C21CC1 (racemic) [Example 3, N-(2-(2′-(2,6-difluoro-3,5-dimethoxyphenyl)-3′-oxo-2′,3′-dihydro-1′H-spiro [cyclopropane-1,4′-[2,7]naphthyridine]-6′-ylamino)cyclohexyl)acrylamide]
5 | – | >10 | >100 | > 200 | – | – | >10 | >100 | >10 | >100 | > 200 | > 200 | – | < 10 | > 200 | > 200 | > 200 | 10 to 30 | – | – | C=CC(=O)Nc1ccccc1Nc1cc2c(cn1)CN(c1c(F)c(OC)cc(OC)c1F)C(=O)C21CCOC1 (stereo not drawn) [Example 9, N-(2-(2′-(2,6-difluoro-3,5-dimethoxyphenyl)-3′-oxo-2′,3′,4,5-tetrahydro-1′H,2H-spiro[furan-3,4′-[2,7]naphthyridine]-6′-ylamino)phenyl)acrylamide]

The next lines start with the molecule.

Row | SMILES | IC50 [1] [nM] | FGFR2/FGFR4 [1, 5] | FGFR2/FGFR4 ([1]; pre-incubated for 4 hours) | IC50 [1, 6] [nM] | IC50 [2, 7] [nM] | IC50 [2, 8] [nM] | FGFR1/FGFR4 [2, 5] | FGFR1/FGFR4 ([2]; pre-incubated for 4 hours) | FGFR3/FGFR4 [3, 5] | FGFR3/FGFR4 ([3]; pre-incubated for 4 hours) | IC50 [3, 9] [nM] | IC50 [3, 10] [nM] | IC50 [4, 11] [nM] | IC50 [4, 12] [nM] | IC50 [2, 13] [nM] | IC50 [1, 14] [nM] | IC50 [2, 15] [nM] | IC50 [4, 16] [nM] | IC50 [4, 17] [nM] | IC50 [3] [nM]
6 | C=CC(=O)Nc1ccccc1Nc1cc2c(cn1)CN(c1c(F)c(OC)cc(OC)c1F)C(=O)C21CCCC1 [Example 7, N-(2-(2′-(2,6-difluoro-3,5-dimethoxyphenyl)-3′-oxo-2′,3′-dihydro-1′H-spiro [cyclopentane-1,4′-[2,7]naphthyridine]-6′-ylamino)phenyl)acrylamide] | 30 to 200 | >10 | >100 | > 200 | 30 to 200 | 30 to 200 | >10 | >100 | >10 | >100 | > 200 | > 200 | < 10 | < 10 | – | – | – | – | – | –
7 | C=CC(=O)Nc1ccc(N2CCN(C)CC2)cc1Nc1cc2c(cn1)CN(c1c(F)c(OC)cc(OC)c1F)C(=O)C21CC1 [Example 11, N-(2-(2′-(2,6-difluoro-3,5-dimethoxyphenyl)-3′-oxo-2′,3′-dihydro-1′H-spiro [cyclopropane-1,4′-[2,7]naphthyridine]-6′-ylamino)-4-(4-methylpiperazin-1-yl)phenyl)acrylamide] | 30 to 200 | >10 | >25 | > 200 | – | 30 to 200 | >10 | >25 | >10 | >100 | > 200 | > 200 | < 10 | < 10 | > 200 | – | – | – | – | –
8 | C=CC(=O)N[C@H]1CCC[C@H]1Oc1ncc2c(n1)C1(CC1)C(=O)N(c1c(F)c(OC)cc(OC)c1F)C2 [Example 12, N-((1 S,2R)-2-(6′-(2,6-difluoro-3,5-dimethoxyphenyl)-7′-oxo-6′,7′-dihydro-5′H-spiro[cyclopropane-1,8′-pyrido[4,3-d]pyrimidine]-2′-yloxy)cyclopentyl)acrylamide] | – | >10 | >100 | > 200 | – | – | >10 | >100 | >10 | >100 | > 200 | > 200 | – | – | > 200 | > 200 | > 200 | 30 to 200 | 10 to 30 | –
9 | C=CC(=O)Nc1ccccc1Nc1cc2c(cn1)CN(c1c(F)c(OC)cc(OC)c1F)C(=O)C21CC1 [Example 1, N-(2-(2′-(2,6-difluoro-3,5-dimethoxyphenyl)-3′-oxo-2′,3′-dihydro-1H-spiro[cyclopropane-1,4′-[2,7]naphthyridine]-6′-ylamino)phenyl)acrylamide] | 30 to 200 | >10 | >100 | 30 to 200 | 30 to 200 | 30 to 200 | >10 | >100 | >10 | >100 | 30 to 200 | – | < 10 | < 10 | – | – | – | – | – | 30 to 200
10 | C=CC(=O)Nc1ccccc1Nc1cc2c(cn1)CN(c1c(F)c(OC)cc(OC)c1F)C(=O)C21CCOCC1 [Example 8, N-(2-(2-(2,6-difluoro-3,5-dimethoxyphenyl)-3-oxo-2,2′,3,3′,5′,6′-hexahydro-1H-spiro[[2,7]naphthyridine-4,4′-pyran]-6-ylamino)phenyl)acrylamide] | – | >10 | >100 | > 200 | – | – | >10 | >100 | >10 | >100 | > 200 | > 200 | > 200 | < 10 | > 200 | > 200 | > 200 | – | – | –
11 | C=CC(=O)Nc1ccccc1Nc1cc2c(cn1)CN(c1c(F)c(OC)cc(OC)c1F)C(=O)C2(C)C [Example 6, N-(2-(7-(2,6-difluoro-3,5-dimethoxyphenyl)-5,5-dimethyl-6-oxo-5,6,7,8-tetrahydro-2,7-naphthyridin-3-ylamino)phenyl)acrylamide] | – | >10 | >100 | > 200 | – | – | >10 | >100 | >10 | >100 | > 200 | > 200 | – | < 10 | > 200 | > 200 | > 200 | 10 to 30 | – | –
12 | C=CC(=O)Nc1ccc(N2CCOCC2)cc1Nc1cc2c(cn1)CN(c1c(F)c(OC)cc(OC)c1F)C(=O)C21CC1 [Example 10, N-(2-{[2′-(2,6-difluoro-3,5-dimethoxyphenyl)-3′-oxo-2′,3′-dihydro-1′H-spiro [cyclopropane-1,4′-[2,7]naphthyridin]-6′-yl]amino}-4-morpholin-4-ylphenyl)acrylamide] | – | >10 | >100 | > 200 | – | 30 to 200 | >10 | >100 | >10 | >100 | 30 to 200 | – | < 10 | < 10 | > 200 | > 200 | – | – | – | 30 to 200
